# In the NIST ThermoML archive (doi:10.1021/je200816z):
# ± gives the expanded uncertainty stated by the source.
# Details: 351.21 K; Liquid
compound,measurement,value
CCO [ethanol],vapor or sublimation pressure,100 ± 0.9 kPa
